Read-outs that look alike come from different tables or passages of the source.
What was measured:
[1] = test system: α-isomaltosylglucosaccharide-forming enzyme; assay: Influence of metal ions on the activity of α-isomaltosylglucosaccharide-forming enzyme (Strain C9); format: biochemical, Bacillus globisporus C9; settings: for Relative activity (%): 1 mM of each metal-ion
Procedure: (§1) One unit activity of the α-isomaltosylglucosaccharide-forming enzyme is defined as the enzyme amount that forms one micromole of maltose per minute under the above enzymatic reaction conditions. Throughout the specification, the enzymatic activity of the α-isomaltosylglucosaccharide-forming enzyme means the unit(s) assayed as above.
(§2) The influence of metal ions on the activity of α-isomaltosylglucosaccharide-forming enzyme was examined in the presence of 1 mM of each metal-ion according to the assay for the enzyme activity.

[2] = test system: α-isomaltosyl-transferring enzyme; assay: Influence of metal ions on the activity of α-isomaltosyl-transferring enzyme (Strain C9); format: biochemical, Bacillus globisporus C9; settings: for influence on the enzyme activity, in words: 1 mM; for Relative activity (%): 1 mM of each metal-ion
Procedure: The α-isomaltosyl-transferring enzyme was assayed for enzymatic activity by dissolving panose in 100 mM acetate buffer (pH 6.0) to give a concentration of 2% (w/v) for a substrate solution, adding a 0.5 ml of an enzyme solution to 0.5 ml of the substrate solution, enzymatically reacting the mixture solution at 35° C. for 30 min, suspending the reaction mixture by boiling for 10 min, and quantifying glucose, among the cyclotetrasaccharide and glucose formed in the reaction mixture, by the glucose oxidase method. One unit activity of the α-isomaltosyl-transferring enzyme is defined as the enzyme amount that forms one micromole of glucose per minute under the above enzymatic reaction conditions. Throughout the specification, the enzymatic activity of the α-isomaltosyl-transferring enzyme means the unit(s) assayed as above. […]

[3] = test system: α-isomaltosylglucosaccharide-forming enzyme; assay: Influence of metal ions on the activity of α-isomaltosylglucosaccharide-forming enzyme (Strain C11); format: biochemical, Bacillus globisporus C11; settings: for influence on the enzyme activity, in words: 1 mM; for Relative activity (%): 1 mM of each metal-ion
Procedure: as §1
The influence of metal ions on the activity of α-isomaltosylglucosaccharide forming enzyme was examined in the presence of 1 mM of each metal-ion according to the assay for the enzyme activity.

[4] = test system: α-isomaltosyl-transferring enzyme; format: biochemical, Bacillus globisporus C11; settings: 1 mM of each metal-ion
Procedure: (§3) The α-isomaltosyl-transferring enzyme was assayed for enzymatic activity by dissolving panose in 100 mM acetate buffer (pH 6.0) to give a concentration of 2% (w/v) for a substrate solution, adding a 0.5 ml of an enzyme solution to 0.5 ml of the substrate solution, enzymatically reacting the mixture solution at 35° C. for 30 min, suspending the reaction mixture by boiling for 10 min, and quantifying glucose, among the cyclotetrasaccharide and glucose formed in the reaction mixture, by the glucose oxidase method. One unit activity of the α-isomaltosyl-transferring enzyme is defined as the enzyme amount that forms one micromole of glucose per minute under the above enzymatic reaction conditions. Throughout the specification, the enzymatic activity of the α-isomaltosyl-transferring enzyme means the unit(s) assayed as above.
(§4) The influence of metal ions on the activity of α-isomaltosyl-transferring enzyme was examined in the presence of 1 mM of each metal-ion according to the assay for the enzyme activity.

[5] = test system: α-isomaltosylglucosaccharide-forming enzyme; assay: Influence of metal ions on the activity of α-isomaltosylglucosaccharide-forming enzyme (Strain N75); format: biochemical, Bacillus globisporus N75; settings: for influence on the enzyme activity, in words: 1 mM; for Relative activity (%): 1 mM of each metal-ion
Procedure: as §1, §2

[6] = test system: α-isomaltosyl-transferring enzyme; assay: Influence of metal ions on the activity of α-isomaltosyl-transferring enzyme (Strain N75); format: biochemical, Bacillus globisporus N75; settings: for influence on the enzyme activity, in words: 1 mM; for Relative activity (%): 1 mM of each metal-ion
Procedure: as §3, §4

[7] = test system: α-isomaltosylglucosaccharide-forming enzyme; assay: Influence of metal ions on the activity of α-isomaltosylglucosaccharide-forming enzyme (Strain A19); format: biochemical, Arthrobacter globiformis A19; settings: for Relative activity (%): 1 mM of each metal-ion
[8] = test system: α-isomaltosyl-transferring enzyme; assay: Influence of metal ions on the activity of α-isomaltosyl-transferring enzyme (Strain S1); format: biochemical, Arthrobacter ramosus S1; settings: for Relative activity (%): 1 mM of each metal-ion
Procedure: as §3, §4

[9] = test system: α-isomaltosylglucosaccharide-forming enzyme; assay: Action on saccharides (substrates), Enzyme of Strain C9; format: biochemical, Bacillus globisporus C9; parameters: key: −: it showed no change; +: it showed a slight reduction of the color spot of the substrate and the formation of other reaction product; ++: it showed a high reduction of the color spot of the substrate and the formation of other reaction product; +++: it showed a substantial disappearance of the substrate spot and the formation of other reaction product; settings: two units/g substrate, substrate 2% (w/v), 30° C., pH 6.0, 24 hours, TLC
Procedure: (§5) It was tested whether saccharides can be used as substrates for the α-isomaltosylglucosaccharide-forming enzyme. For the purpose, a solution of maltose, maltotriose, maltotetraose, maltopentaose, maltohexaose, maltoheptaose, isomaltose, isomaltotriose, panose, isopanose, trehalose, kojibiose, nigerose, neotrehalose, cellobiose, gentibiose, maltitol, maltotriitol, lactose, sucrose, erlose, selaginose, maltosyl glucoside, or isomaltosyl glucoside was prepared.
(§6) To each of the above solutions was added two units/g substrate of a purified specimen of α-isomaltosylglucosaccharide-forming enzyme from either Bacillus globisporus C9 obtained by the method in Experiment 4-2, Bacillus globisporus C11 obtained by the method in Experiment 7-2, Bacillus globisporus N75 obtained by the method in Experiment 11-2, or Arthrobacter globiformis A19 obtained by the method in Experiment 15-2, and the resulting each solution was adjusted to give a substrate concentration of 2% (w/v) and incubated at 30° C. and pH 6.0, except for using pH 8.4 for the enzyme from Arthrobacter globiformis A19, for 24 hours. The enzyme solutions before and after the enzymatic reactions were respectively analyzed on TLC disclosed in Experiment 1 to confirm whether the enzymes acted on these substrates.

[10] = test system: α-isomaltosylglucosaccharide-forming enzyme; assay: Action on saccharides (substrates), Enzyme of Strain C11; format: biochemical, Bacillus globisporus C11; parameters: key: −: it showed no change; +: it showed a slight reduction of the color spot of the substrate and the formation of other reaction product; ++: it showed a high reduction of the color spot of the substrate and the formation of other reaction product; +++: it showed a substantial disappearance of the substrate spot and the formation of other reaction product; settings: two units/g substrate, substrate 2% (w/v), 30° C., pH 6.0, 24 hours, TLC
Procedure: as §5, §6

[11] = test system: α-isomaltosylglucosaccharide-forming enzyme; assay: Action on saccharides (substrates), Enzyme of Strain N75; format: biochemical, Bacillus globisporus N75; parameters: key: −: it showed no change; +: it showed a slight reduction of the color spot of the substrate and the formation of other reaction product; ++: it showed a high reduction of the color spot of the substrate and the formation of other reaction product; +++: it showed a substantial disappearance of the substrate spot and the formation of other reaction product; settings: two units/g substrate, substrate 2% (w/v), 30° C., pH 6.0, 24 hours, TLC
Procedure: as §5, §6

[12] = test system: α-isomaltosylglucosaccharide-forming enzyme; assay: Action on saccharides (substrates), Enzyme of Strain A19; format: biochemical, Arthrobacter globiformis A19; parameters: key: −: it showed no change; +: it showed a slight reduction of the color spot of the substrate and the formation of other reaction product; ++: it showed a high reduction of the color spot of the substrate and the formation of other reaction product; +++: it showed a substantial disappearance of the substrate spot and the formation of other reaction product; settings: two units/g substrate, substrate 2% (w/v), 30° C., pH 8.4, 24 hours, TLC
Procedure: as §5, §6

[13] = test system: α-isomaltosylglucosaccharide-forming enzyme; assay: Transfer-acceptor specificity, Enzyme of Strain C9; format: biochemical, Bacillus globisporus C9; settings: acceptor 1.6%, PINE-DEX #100 donor 4%, one unit/g donor, 30° C., pH 6.0, 24 hours
Method in brief: (§7)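 Each candidate acceptor at 1.6% was combined with 4% partial starch hydrolysate donor and 1 unit/g donor (d.s.b.) of purified enzyme. Incubation ran 24 h at 30 °C, pH 6.0 for the C9, C11 and N75 enzymes and pH 8.4 for A19. Transfer products were detected by GLC for mono- and disaccharide acceptors and HPLC for trisaccharide acceptors.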

[14] = test system: α-isomaltosylglucosaccharide-forming enzyme; assay: Transfer-acceptor specificity, Enzyme of Strain C11; format: biochemical, Bacillus globisporus C11; settings: acceptor 1.6%, PINE-DEX #100 donor 4%, one unit/g donor, 30° C., pH 6.0, 24 hours
[15] = test system: α-isomaltosylglucosaccharide-forming enzyme; assay: Transfer-acceptor specificity, Enzyme of Strain N75; format: biochemical, Bacillus globisporus N75; settings: acceptor 1.6%, PINE-DEX #100 donor 4%, one unit/g donor, 30° C., pH 6.0, 24 hours
Method in brief: as §7

[16] = test system: α-isomaltosylglucosaccharide-forming enzyme; assay: Transfer-acceptor specificity, Enzyme of Strain A19; format: biochemical, Arthrobacter globiformis A19; settings: acceptor 1.6%, PINE-DEX #100 donor 4%, one unit/g donor, 30° C., pH 8.4, 24 hours
Method in brief: as §7

| SMILES | Relative activity (%) [1] [%] | Relative activity (%) [2] [%] | influence on the enzyme activity, in words [3] | Relative activity (%) [3] [%] | Relative activity (%) [4] [%] | influence on the enzyme activity, in words [5] | Relative activity (%) [5] [%] | Relative activity (%) [6] [%] | Relative activity (%) [7] [%] | Relative activity (%) [8] [%] | other results |
| --- | --- | --- | --- | --- | --- | --- | --- | --- | --- | --- | --- |
| [Cu+2] [Cu^2+] | 15 | 57 | greatly inhibited | 23 | 56 | greatly inhibited | 7 | 15 | 0 | 2 | influence on the enzyme activity, in words [2]: also inhibited; influence on the enzyme activity, in words [6]: also inhibited; influence on the enzyme activity, in words ([7]; 1 mM): greatly inhibited; influence on the enzyme activity, in words ([8]; 1 mM): also inhibited |
| [Mn+2] [Mn^2+] | 111 | 106 | activated | 142 |  | activated | 120 |  |  |  |  |
| [Ca+2] [Ca^2+] | 115 | 101 | activated | 109 | 91 | activated | 108 | 100 | 106 | 103 | influence on the enzyme activity, in words [2]: not activated; influence on the enzyme activity, in words [6]: not activated |
| [Ba+2] [Ba^2+] | 65 | 102 | also inhibited | 65 | 90 |  | 84 | 102 | 99 | 97 | influence on the enzyme activity, in words ([1]; 1 mM): also inhibited |
| [Pb+2] [Pb^2+] | 103 | 89 |  | 101 | 74 |  | 86 | 69 | 43 | 85 |  |
| [Al+3] [Al^3+] |  | 103 |  |  | 89 |  |  | 94 | 37 | 93 |  |
| [Ni+2] [Ni^2+] |  | 102 |  |  | 89 |  |  | 91 | 46 | 87 |  |
| OC[C@H]1O[C@@](CO)(O[C@H]2O[C@H](CO)[C@@H](O)[C@H](O)[C@H]2O)[C@@H](O)[C@@H]1O [Sucrose] |  |  |  |  |  |  |  |  |  |  | Enzymatic action, Enzyme of Strain C9 [9]: −; Enzymatic action, Enzyme of Strain C11 [10]: −; Enzymatic action, Enzyme of Strain N75 [11]: −; Enzymatic action, Enzyme of Strain A19 [12]: −; Product of transferring reaction, Enzyme of Strain C9 [13]: ++ (a saccharide-transferred product was detected in an amount over ten percent through transfer reaction to acceptor); Product of transferring reaction, Enzyme of Strain C11 [14]: ++ (a saccharide-transferred product was detected in an amount over ten percent through transfer reaction to acceptor); Product of transferring reaction, Enzyme of Strain N75 [15]: ++ (a saccharide-transferred product was detected in an amount over ten percent through transfer reaction to acceptor); Product of transferring reaction, Enzyme of Stain A19 [16]: ++ (a saccharide-transferred product was detected in an amount over ten percent through transfer reaction to acceptor) |
| [Fe+2] [Fe^2+] |  |  |  |  |  |  | 82 |  | 36 |  | Relative activity (%) ([4]; listed as Fe^3+): 88%; Relative activity (%) ([6]; listed as Fe^3+): 90%; Relative activity (%) ([7]; listed as Fe^3+): 35%; Relative activity (%) ([8]; listed as Fe^3+): 75% |
| OC[C@H]1O[C@H](O[C@H]2O[C@H](CO)[C@@H](O)[C@H](O)[C@H]2O)[C@H](O)[C@@H](O)[C@@H]1O [Trehalose] |  |  |  |  |  |  |  |  |  |  | Enzymatic action, Enzyme of Strain C9 [9]: −; Enzymatic action, Enzyme of Strain C11 [10]: −; Enzymatic action, Enzyme of Strain N75 [11]: −; Enzymatic action, Enzyme of Strain A19 [12]: −; Product of transferring reaction, Enzyme of Strain C9 [13]: ++ (a saccharide-transferred product was detected in an amount over ten percent through transfer reaction to acceptor); Product of transferring reaction, Enzyme of Strain C11 [14]: ++ (a saccharide-transferred product was detected in an amount over ten percent through transfer reaction to acceptor); Product of transferring reaction, Enzyme of Strain N75 [15]: ++ (a saccharide-transferred product was detected in an amount over ten percent through transfer reaction to acceptor); Product of transferring reaction, Enzyme of Stain A19 [16]: ++ (a saccharide-transferred product was detected in an amount over ten percent through transfer reaction to acceptor) |

Source: patent publication US7811797B2, “α-isomaltosylglucosaccharide-forming enzyme, process and uses of the same” (Kabushiki Kaisha Hayashibara Seibutsu Kagaku Kenkyujo, priority 2000, dated 2010)
